Reference: patent US11452718B2 (AVALYN PHARMA INC., priority 2012, dated 2022)

Key:
[1] = Pharmacokinetics and tissue distribution (lung, plasma, heart, kidney) of co-solvent formulations, bolus intratracheal aerosol; assay type: in vivo, Sprague-Dawley rats; conditions: for Analyte in lung tissue, Mean: about 4 mg/kg pirfenidone IT bolus aerosol
Description: Selected formulations were prepared for pharmacokinetic analysis following aerosol delivery to rat lung. […] Formulations prepared for this study are outlined in Table 9. […] The sample was agitated until completely dissolved. […] Filtered samples were analyzed by HPLC.

[2] = in vivo; cited from earlier work
cancer patients = conditions: cited from earlier work
[3] = tested on: relapsed/refractory multiple myeloma; conditions: cited from earlier work
PI3K = conditions: cited from earlier work
mTOR = mTOR (Homo sapiens, UniProt P42345); conditions: cited from earlier work
breast cancer stem cells = conditions: mouse, in vivo; cited from earlier work
p110-γ and p110-δ = conditions: versus the other isoforms; cited from earlier work
[4] = tested on: EGFR mutation positive patients; conditions: cited from earlier work
[5] = tested on: sol elastase activity of CF sputum; conditions: direct treatment of unprocessed CF sputum; cited from earlier work

## O=C(O)c1ccc(=O)n(-c2ccccc2)c1
[1]; 0 MIN
  Analyte in lung tissue, Mean: 0.00 μg/gram
[1]; Group 1, 0.0333 hr
  Analyte in lung tissue, Mean: 0.12 μg/gram
[1]; Group 1, 0.0667 hr
  Analyte in lung tissue, Mean: 0.13 μg/gram
[1]; Group 1, 0.1 hr
  Analyte in lung tissue, Mean: 0.48 μg/gram
[1]; Group 1, 0.167 hr
  Analyte in lung tissue, Mean: 0.49 μg/gram
[1]; Group 1, 0.333 hr
  Analyte in lung tissue, Mean: 0.96 μg/gram
[1]; Group 1, 0.667 hr
  Analyte in lung tissue, Mean: 0.96 μg/gram
[1]; Group 1, 1 hr
  Analyte in lung tissue, Mean: 0.73 μg/gram
[1]; Group 1, 2 hr
  Analyte in lung tissue, Mean: 0.21 μg/gram
[1]; Group 1, 2.5 hr
  Analyte in lung tissue, Mean: 0.10 μg/gram
[1]; Group 1, […]
  Analyte in lung tissue, Mean: 0.48 μg/gram
[1]; Group 3, 0.0333 hr
  Analyte in lung tissue, Mean: 0.05 μg/gram
[1]; Group 3, 0.0667 hr
  Analyte in lung tissue, Mean: 0.36 μg/gram
[1]; Group 3, 0.1 hr
  Analyte in lung tissue, Mean: 0.55 μg/gram
[1]; Group 3, 0.167 hr
  Analyte in lung tissue, Mean: 0.86 μg/gram
[1]; Group 3, 0.333 hr
  Analyte in lung tissue, Mean: 1.09 μg/gram
[1]; Group 3, 0.667 hr
  Analyte in lung tissue, Mean: 0.81 μg/gram
[1]; Group 3, 1 hr
  Analyte in lung tissue, Mean: 0.70 μg/gram
[1]; Group 3, 2 hr
  Analyte in lung tissue, Mean: 0.32 μg/gram
[1]; Group 3, 2.5 hr
  Analyte in lung tissue, Mean: 0.14 μg/gram
[1]; Group 3, […]
  Analyte in lung tissue, Mean: 0.52 μg/gram
[1]; Group 5, 0.0333 hr
  Analyte in lung tissue, Mean: 0.17 μg/gram
[1]; Group 5, 0.0667 hr
  Analyte in lung tissue, Mean: 0.42 μg/gram
[1]; Group 5, 0.1 hr
  Analyte in lung tissue, Mean: 0.35 μg/gram
[1]; Group 5, 0.167 hr
  Analyte in lung tissue, Mean: 0.53 μg/gram
[1]; Group 5, 0.333 hr
  Analyte in lung tissue, Mean: 1.32 μg/gram
[1]; Group 5, 0.667 hr
  Analyte in lung tissue, Mean: 0.96 μg/gram
[1]; Group 5, 1 hr
  Analyte in lung tissue, Mean: 0.75 μg/gram
[1]; Group 5, 2 hr
  Analyte in lung tissue, Mean: 0.18 μg/gram
[1]; Group 5, 2.5 hr
  Analyte in lung tissue, Mean: 0.10 μg/gram
[1]; Group 5, […]
  Analyte in lung tissue, Mean: 0.45 μg/gram
[1]; Group 6, 0.0333 hr
  Analyte in lung tissue, Mean: 0.17 μg/gram
[1]; Group 6, 0.0667 hr
  Analyte in lung tissue, Mean: 0.43 μg/gram
[1]; Group 6, 0.1 hr
  Analyte in lung tissue, Mean: 0.37 μg/gram
[1]; Group 6, 0.167 hr
  Analyte in lung tissue, Mean: 0.64 μg/gram
[1]; Group 6, 0.333 hr
  Analyte in lung tissue, Mean: 0.94 μg/gram
[1]; Group 6, 0.667 hr
  Analyte in lung tissue, Mean: 0.92 μg/gram
[1]; Group 6, 1 hr
  Analyte in lung tissue, Mean: 0.78 μg/gram
[1]; Group 6, 2 hr
  Analyte in lung tissue, Mean: 0.24 μg/gram
[1]; Group 6, 2.5 hr
  Analyte in lung tissue, Mean: 0.14 μg/gram
[1]; Group 6, […]
  Analyte in lung tissue, Mean: 0.43 μg/gram

## O=C(O)c1ccc(=O)n(-c2ccccc2)c1 [5-carboxy-pirfenidone]
[1]; primary pirfenidone liver metabolite
  appearance of metabolite after direct aerosol administration to the lung: delayed appearance
[2]
  share of urinary excretion being the primary metabolite: 95%

## N#CC1(c2ccc(NC(=O)c3cccnc3NCc3ccncc3)cc2)CCCC1 [Apatinib]
Cancer patients; 1000 mg/day
  dose limiting toxicities: 3 of 3
Cancer patients; 65 cancer patients, Phase I/II
  complete response: 1.54%
  partial response: 12.31%
  progressive disease: 20%
  stable disease: 66.15%
Cancer patients; daily for 28 days
  well tolerated dose: below 750 mg/day
Cancer patients; human, in vivo
  maximum tolerated dose: 850 mg/day

## CC(C)C[C@H](NC(=O)[C@H](Cc1ccccc1)NC(=O)c1cnccn1)B(O)O [Bortezomib]
[3]; human, in vivo
  patients with peripheral neuropathy: 30%
[3]; intravenous administration
  time to peak concentrations: about 30 minutes

## Cc1c(CN2CCN(S(C)(=O)=O)CC2)sc2c(N3CCOCC3)nc(-c3cnc(N)nc3)nc12 [GNE-477]
mTOR
  IC50: 21 nM

## CC[C@@H](C(=O)[C@@H](C)[C@@H](O)[C@H](C)[C@@H]1O[C@@H]([C@@H](CC)C(=O)O)CC[C@@H]1C)[C@H]1O[C@]2(C=C[C@@H](O)[C@]3(CC[C@@](C)([C@H]4CC[C@](O)(CC)[C@H](C)O4)O3)O2)[C@H](C)C[C@@H]1C [Salinomycin]
Breast cancer stem cells
  effectiveness relative to paclitaxel: at least 100 times

## Nc1nc(N)c2nc(-c3cccc(O)c3)c(-c3cccc(O)c3)nc2n1 [TG100-115]
p110-γ and p110-δ
  better potency against p110-γ and p110-δ: 5-10 fold

## C#Cc1cccc(Nc2ncnc3cc(OCCOC)c(OCCOC)cc23)c1 [erlotinib]
[4]; EGFR mutation positive patients
  response rate: approximately 60%
[4]; human, in vivo
  time to development of resistance from the start of treatment: 8-12 months

## DNase
[5]
  increase of elastase activity: 190%

B1: reduced rhTrx: stable reduced form of recombinant human thioredoxin (protein, UniProt P10599 2-105, looked up)
Thioredoxin: VKQIESKTAFQEALDAAGDKLVVVDFSATWCGPCKMIKPFFHSLSEKYSNVIFLEVDVDDCQDVASECEVKCMPTFQFFKKGQKVGEFSGANKEKLEATINELV
modifications: reduced form
[5]
  increase of elastase activity: 60%
